According to patent US11512053B2, “Arginine methyltransferase inhibitors and uses thereof” (priority 2013, dated 2022):
Read-outs that look alike come from different tables or passages of the source.

Experiments:
[1] = target: full-length human PRMT1 isoform 1 (GST-tagged) (Homo sapiens, UniProt Q99873); experiment: PRMT1 Biochemical Assay (3H-SAM Flashplate, peptide substrate)
Source text: General Materials. S-adenosylmethionine (SAM), S-adenosylhomocysteine (SAH), bicine, Tween20, dimethylsulfoxide (DMSO), bovine skin gelatin (BSG), and Tris(2-carboxyethyl)phosphine hydrochloride solution (TCEP) were purchased from Sigma-Aldrich at the highest level of purity possible. ^3H-SAM was purchase from American Radiolabeled Chemicals with a specific activity of 80 Ci/mmol. 384-well streptavidin Flashplates were purchased from PerkinElmer.
Protein Expression. Recombinant baculovirus were generated according to Bac-to-Bac kit instructions (Life Technologies). […] Infections were carried out at 27° C. for 48 hours, harvested by centrifugation, and stored at −80° C. for purification.
Protein Purification. […] GST-tagged PRMT1 was eluted with 50 mM Tris, 2 mM glutathione, pH 7.8, dialysed in buffer A and concentrated to 1 mg/mL.
General Procedure for PRMT1 Enzyme Assays on Peptide Substrates. The assays were all performed in a buffer consisting of 20 mM Bicine (pH=7.6), 1 mM TCEP, 0.005% BSG, and 0.002% Tween 20, prepared on the day of use. […] DMSO (1 ul) was added to Columns 11, 12, 23, 24, rows A-H for the maximum signal control and 1 ul of SAH, a known product and inhibitor of PRMT1, was added to columns 11, 12, 23, 24, rows I-P for the minimum signal control. A cocktail (40 ul) containing the PRMT1 enzyme was added by Multidrop Combi (Thermo-Fisher). The compounds were allowed to incubate with PRMT1 for 30 min at room temperature, then a cocktail (10 ul) containing SAM and peptide was added to initiate the reaction (final volume=51 ul). […] The assays were stopped by the addition of non-radiolabeled SAM (10 ul) to a final concentration of 300 uM, which dilutes the ^3H-SAM to a level where its incorporation into the peptide substrate is no longer detectable. 50 ul of the reaction in the 384-well polypropylene plate was then transferred to a 384-well Flashplate and the biotinylated peptides were allowed to bind to the streptavidin surface for at least 1 hour before being washed once with 0.1% Tween20 in a Biotek ELx405 plate washer. The plates were then read in a PerkinElmer TopCount plate reader to measure the quantity of ^3H-labeled peptide bound to the Flashplate surface, measured as disintegrations per minute (dpm) or alternatively, referred to as counts per minute (cpm).
Where dpm=disintegrations per minute, cmpd=signal in assay well, and min and max are the respective minimum and maximum signal controls.
Where top and bottom are the normally allowed to float, but may be fixed at 100 or 0 respectively in a 3-parameter fit. The Hill Coefficient normally allowed to float but may also be fixed at 1 in a 3-parameter fit. Y is the % inhibition and X is the compound concentration.

[2] = system: mono-methyl arginine in RKO cells; experiment: RKO Methylation Assay, In Cell Western (ICW) for detection of mono-methyl arginine and DNA content; type: cell-based; conditions: Homo sapiens, RKO, 72 h, RKO cells, read-out: In Cell Western EC30
Outline: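 RKO cells were treated with compound for 72 hours at 37 °C, methanol-fixed and stained overnight at 4 °C with anti-mono-methyl arginine (1:200), with DRAQ5 for DNA. Odyssey 800/700 nm intensity ratio was normalized to DMSO and 20 μM reference-compound controls. EC30 from triplicate nine-point curves.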

[3] = single experiment or average of multiple experiments
[4] = 72 hours compound incubation, mono-methyl arginine signal normalised to DNA content (DRAQ5), percent activation vs 20 μM reference compound
[5] = 72 hours incubation, mono-methyl arginine signal normalised to DNA content, single experiment or average of multiple experiments

Chain of full-length human PRMT1 isoform 1 (GST-tagged) (Q99873 with tags, fused parts or gaps): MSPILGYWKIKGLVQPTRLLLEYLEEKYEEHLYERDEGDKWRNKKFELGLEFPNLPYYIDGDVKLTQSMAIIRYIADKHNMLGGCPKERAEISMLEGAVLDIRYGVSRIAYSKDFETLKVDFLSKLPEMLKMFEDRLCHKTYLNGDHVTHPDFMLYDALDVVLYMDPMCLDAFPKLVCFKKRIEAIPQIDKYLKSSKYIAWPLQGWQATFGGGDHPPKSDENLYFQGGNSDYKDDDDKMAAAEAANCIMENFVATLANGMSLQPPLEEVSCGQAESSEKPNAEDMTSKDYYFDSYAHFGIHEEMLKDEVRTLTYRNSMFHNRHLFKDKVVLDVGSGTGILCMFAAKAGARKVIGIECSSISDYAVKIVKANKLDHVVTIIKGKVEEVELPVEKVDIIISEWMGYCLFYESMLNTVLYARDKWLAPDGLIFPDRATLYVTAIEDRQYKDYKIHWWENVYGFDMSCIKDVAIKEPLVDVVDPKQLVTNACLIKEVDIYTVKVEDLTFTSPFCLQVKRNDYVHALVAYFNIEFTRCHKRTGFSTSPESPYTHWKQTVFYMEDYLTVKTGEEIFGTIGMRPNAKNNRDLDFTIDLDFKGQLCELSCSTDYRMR

SMILES | IC50 [1] [nM] | IC50 [1, 3] [nM] | EC30 [2, 4] [nM] | EC30 [2, 5] [nM]
CNCCN(C)Cc1c[nH]nc1[C@H]1CC[C@@H](OC2CCCCC2)CC1 [Compound 140] | < 100 | 15.6 | < 3000 | 164
CNCCN(C)Cc1c[nH]nc1C1CCC2(CC1)CC(=O)N(Cc1ccc(OC)cc1)C2 (stereo not drawn) [Compound 146] | < 100 | 14 | < 3000 | 160
CNCCN(C)Cc1c[nH]nc1C1CCC(C)CC1 (stereo not drawn) [Compound 149] | < 100 | 4.5 | < 3000 | 106
CNCCN(C)Cc1c[nH]nc1[C@H]1CC[C@]2(CCN(Cc3ccc(F)cc3)C2=O)CC1 [Compound 123] | < 100 | 8.8 | < 3000 | 44
CN(CCN)Cc1c[nH]nc1CCc1ccccc1 [Compound 9] | < 100 | 10 | 3010 to 12000 | 5610
CNCCN(C)Cc1c[nH]nc1[C@H]1CC[C@H](C(C)C)CC1 [Compound 180] | < 100 | 4.9 | < 3000 | 19
CNCCN(C)Cc1c[nH]nc1C1CCC2(CC1)C(=O)NC(=O)N2C (stereo not drawn) [Compound 161] | < 100 | 25.6 | 3010 to 12000 | 5020
CCC(=O)N(CC1CCOCC1)[C@H]1CC[C@H](c2n[nH]cc2CN(C)CCNC)CC1 [Compound 109] | < 100 | 26.7 | < 3000 | 2480
CNCCN(C)Cc1c[nH]nc1[C@H]1CC[C@@]2(CCOC2)CC1 [Compound 141] | < 100 | 10.7 | < 3000 | 132
CNCCN(C)Cc1c[nH]nc1C1CCC2(CC1)C(=O)N(C)C(=O)N2C (stereo not drawn) [Compound 171] | < 100 | 14.7 | < 3000 | 192
CNCCN(C)Cc1c[nH]nc1[C@H]1CC[C@@H](C(C)C)CC1 [Compound 181] | < 100 | 4.7 | < 3000 | 107
CNCCN(C)Cc1c[nH]nc1[C@H]1CC[C@]2(CCN(Cc3ccccc3)C2=O)CC1 [Compound 128] | < 100 | 5.2 | < 3000 | 1080
CNCCN(C)Cc1c[nH]nc1[C@H]1CC[C@H](OCCOc2ccc(OCCOC)cc2)CC1 [Compound 116] | < 100 | 9.8 | 3010 to 12000 | 8900
CNCCN(C)Cc1c[nH]nc1C1CCC2(CC1)CNC(=O)C2 (stereo not drawn) [Compound 147] | < 100 | 18.3 | 3010 to 12000 | 8600
CNCCN(C)Cc1c[nH]nc1C1CCC2(CCNC2=O)CC1 (stereo not drawn) [Compound 176] | < 100 | 10.2 | < 3000 | 2140
